Results: patent US11959083B2, “Immunosuppression-reverting oligonucleotides inhibiting the expression of CD39” (Secarna Pharmaceuticals GmbH & Co. KG, priority 2016, dated 2024)
l = locked nucleic acid (LNA); d = 2'-deoxy (DNA)

What was measured:
mCD39 mRNA = mCD39 mRNA knockdown efficacy screen in A20 cells (single dose, gymnotic delivery, QuantiGene Singleplex); type: cell-based, mouse; details: 10 μM, three days, normalized to HPRT1
Procedure: FIG. 14-1 and 14-2 show mCD39 mRNA knockdown efficacy of mCD39 antisense oligonucleotides in the murine cancer cell line A20 (mouse B cell lymphoma). A20 cells were treated with a single dose of 10 μM of the respective antisense oligonucleotide. As negative control, cells were treated with neg1, an antisense oligonucleotide having the sequence CGTTTAGGCTATGTACTT (SEQ ID NO:99). Residual mCD39 mRNA expression relative to untreated cells is depicted. Expression values were normalized to expression of the housekeeping gene HPRT1.
In order to analyze the efficacy of mCD39 antisense oligonucleotides with regard to the knockdown of mCD39 mRNA expression in a cancer cell line, A20 (mouse B cell lymphoma, ATCC) cells were treated with a single dose (concentration: 10 μM without addition of any transfection reagent; this process is called gymnotic delivery) of the respective antisense oligonucleotide as indicated in FIG. 14. As control, cells were treated with neg1, an antisense oligonucleotide having the sequence CGTTTAGGCTATGTACTT (SEQ ID NO:99). mCD39 and HPRT1 mRNA expression was analyzed after three days using the QuantiGene Singleplex assay (Affymetrix) and mCD39 expression values were normalized to HPRT1 expression values.

hCD39 mRNA [1] = assay: hCD39 mRNA knockdown efficacy screen in HDLM-2 cells (single dose, gymnotic delivery, QuantiGene Singleplex); type: cell-based, human; details: 10 μM, 3 days; for Mean hCD39 mRNA expression normalized to HPRT1 relative to untreated control = 1: first screening round; for Relative hCD39 mRNA expression (compared to non-treated cells): second screening round, normalized to HPRT1; for Residual hCD39 mRNA expression relative to untreated cells (set as 1): third screening round
Outline: (§1)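 Antisense oligonucleotides given once at 10 μM without transfection reagent (gymnotic) to HDLM-2 or A-172 cells for 3 days. hCD39 mRNA measured by QuantiGene Singleplex, normalized to HPRT1 and expressed relative to untreated cells; triplicate means.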

hCD39 mRNA [2] = assay: IC50 determination / concentration-dependent hCD39 mRNA knockdown in HDLM-2 cells; type: cell-based, human; details: for mRNA inhibition: HDLM-2, 3 days; for IC50: HDLM-2 cells, hCD39 mRNA, 3 days
Procedure: HDLM-2 cells were treated for 3 days with the indicated concentration of the respective antisense oligonucleotide. Residual hCD39 expression is depicted compared to untreated control cells. hCD39 mRNA expression values were normalized to expression of the housekeeping gene HPRT1.
The antisense oligonucleotide A04040H (SEQ ID No. 3) that had shown potent activity in the first and second screening round was used as reference. HDLM-2 cells treated for 3 days with the indicated concentrations of the respective antisense oligonucleotide. hCD39 mRNA expression values were normalized to expression of the housekeeping gene HPRT1. Residual hCD39 mRNA expression relative to untreated cells (set as 100) is depicted. Depicted is the mean of triplicate wells+/−SD.
In a second experiment the concentration-dependency of effects and the IC50 values of hCD39 antisense oligonucleotides A04010H (SEQ ID No.14), A04016H (SEQ ID No.20), A04017H (SEQ ID No.21), A04020H (SEQ ID No. 24) and A04026H (SEQ ID No.30) were tested. […] HDLM-2 cells were treated with titrated amounts of the respective antisense oligonucleotide (concentrations: 10 μM, 3.3 μM, 1.1 μM, 370 nM, 120 nM, 41 nM, 14 nM, 4.5 nM). hCD39 mRNA expression was analyzed after three days of treatment. FIG. 5 and Table 9 depicts the concentration-dependent reduction of hCD39 mRNA expression by the selected hCD39 antisense oligonucleotides.
The hCD39 antisense oligonucleotides A04051H (SEQ ID No.88), A04052H (SEQ ID No.89), A04053H ([…]), A04056H (SEQ ID No.92), A04059H (SEQ ID No.94), A04060H (SEQ ID No.95), and A04061H (SEQ ID No.96) had shown potent single-dose activity in both HDLM-2 and A-172 cells. […] The antisense oligonucleotide A04040H that had shown potent activity in the first screening round was used as reference. hCD39 mRNA expression was analyzed after 3 days of treatment. FIG. 7 depicts the concentration-dependent reduction of hCD39 expression by hCD39 antisense oligonucleotides.

hCD39 mRNA [3] = assay: hCD39 mRNA knockdown efficacy screen in A-172 cells (single dose, gymnotic delivery, QuantiGene Singleplex); type: cell-based, human; details: 10 μM, 3 days; for Mean hCD39 mRNA expression (relative to untreated cells set as 1): first screening round; for Mean hCD39 mRNA expression (relative to untreated cells set as 1) / Relative hCD39 mRNA expression (compared to non-treated cells): normalized to HPRT1; for Relative hCD39 mRNA expression (compared to non-treated cells): second screening round; for Residual hCD39 mRNA expression relative to untreated cells (set as 1): third screening round
Outline: as §1

[4] = second screening round (Table 9)
[5] = third screening round (Table 12)

| Substance | Mean hCD39 mRNA expression normalized to HPRT1 relative to untreated control = 1 (hCD39 mRNA [1]) | Relative hCD39 mRNA expression (compared to non-treated cells) (hCD39 mRNA [1]) | mRNA inhibition (hCD39 mRNA [2]; 0.0045 μM, Table 9) [%] | mRNA inhibition (hCD39 mRNA [2]; 0.013 μM, Table 9) [%] | mRNA inhibition (hCD39 mRNA [2]; 0.04 μM, Table 9) [%] | mRNA inhibition (hCD39 mRNA [2]; 0.12 μM, Table 9) [%] | mRNA inhibition (hCD39 mRNA [2]; 0.4 μM, Table 9) [%] | mRNA inhibition (hCD39 mRNA [2]; 1.1 μM, Table 9) [%] | mRNA inhibition (hCD39 mRNA [2]; 3.3 μM, Table 9) [%] | mRNA inhibition (hCD39 mRNA [2]; 10 μM, Table 9) [%] | IC50 (hCD39 mRNA [2]; [4]) [nM] | Mean hCD39 mRNA expression (relative to untreated cells set as 1) (hCD39 mRNA [3]) | Relative hCD39 mRNA expression (compared to non-treated cells) (hCD39 mRNA [3]) | Residual hCD39 mRNA expression relative to untreated cells (set as 1) (hCD39 mRNA [1]) | mRNA inhibition (hCD39 mRNA [2]; 4 nM, Table 12) [%] | mRNA inhibition (hCD39 mRNA [2]; 12 nM, Table 12) [%] | mRNA inhibition (hCD39 mRNA [2]; 40 nM, Table 12) [%] | mRNA inhibition (hCD39 mRNA [2]; 110 nM, Table 12) [%] | mRNA inhibition (hCD39 mRNA [2]; 330 nM, Table 12) [%] | Residual hCD39 mRNA expression relative to untreated cells (set as 1) (hCD39 mRNA [3]) | further results |
| --- | --- | --- | --- | --- | --- | --- | --- | --- | --- | --- | --- | --- | --- | --- | --- | --- | --- | --- | --- | --- | --- |
| +G*+A*+C*C*T*T*T*C*A*C*T*T*G*G*C*A*+T (antisense GACCTTTCACTTGGCAT; sugars from the 5' end l3 d13 l1, all phosphorothioate, methylation of C not given here) [A04023MR] |  |  |  |  |  |  |  |  |  |  |  |  |  |  |  |  |  |  |  |  | Relative mCD39 mRNA expression (compared to non-treated cells) (mCD39 mRNA): 0.03 |
| +G*+A*+T*A*G*T*T*T*C*C*A*A*T*+A*+C*+C (antisense GATAGTTTCCAATACC; sugars from the 5' end l3 d10 l3, all phosphorothioate, methylation of C not given here) [A04026H] | 0.03 | 0.03 | 29.98 | 29.02 | 54.32 | 77.36 | 92.99 | 96.69 | 99.20 | 98.59 | 61.5 | 0.07 | 0.08 |  |  |  |  |  |  |  |  |
| +A*+G*+A*G*T*G*C*C*T*G*A*T*C*+C*+T*+T (antisense AGAGTGCCTGATCCTT; sugars from the 5' end l3 d10 l3, all phosphorothioate, methylation of C not given here) [A04051H] |  |  |  |  |  |  |  |  |  |  |  |  |  | 0.02 | 23.62 | 23.14 | 43.66 | 70.34 | 86.77 | 0.34 | mRNA inhibition (hCD39 mRNA [2]; 0.45 nM, Table 12): 30.83%; mRNA inhibition (hCD39 mRNA [2]; 1.3 nM, Table 12): 15.36%; mRNA inhibition (hCD39 mRNA [2]; 1000 nM, Table 12): 92.82%; IC50 (hCD39 mRNA [2]; [5]): 69 nM |
| +C*+T*+T*G*A*A*C*A*C*T*G*C*+G*+A*+T (antisense CTTGAACACTGCGAT; sugars from the 5' end l3 d9 l3, all phosphorothioate, methylation of C not given here) [A04017H] | 0.11 | 0.11 | 33.85 | 49.62 | 62.92 | 79.03 | 91.63 | 97.05 | 98.95 | 99.37 | 33.1 | 0.11 | 0.11 |  |  |  |  |  |  |  |  |
| +G*+G*+T*T*T*G*T*G*T*G*A*G*A*G*C*+T*+T (antisense GGTTTGTGTGAGAGCTT; sugars from the 5' end l3 d12 l2, all phosphorothioate, methylation of C not given here) [A04059H] |  |  |  |  |  |  |  |  |  |  |  |  |  | 0.01 | 0.00 | 12.94 | 72.06 | 91.84 | 97.46 | 0.09 | mRNA inhibition (hCD39 mRNA [2]; 0.45 nM, Table 12): 1.21%; mRNA inhibition (hCD39 mRNA [2]; 1.3 nM, Table 12): 0.00%; mRNA inhibition (hCD39 mRNA [2]; 1000 nM, Table 12): 98.31%; IC50 (hCD39 mRNA [2]; [5]): 18.3 nM |
| +G*+G*+T*T*T*G*T*G*T*G*A*G*A*G*C*+T (antisense GGTTTGTGTGAGAGCT; sugars from the 5' end l3 d12 l1, all phosphorothioate, methylation of C not given here) [A04060H] |  |  |  |  |  |  |  |  |  |  |  |  |  | 0.01 | 0.00 | 0.00 | 49.14 | 88.34 | 96.71 | 0.08 | mRNA inhibition (hCD39 mRNA [2]; 0.45 nM, Table 12): 0.00%; mRNA inhibition (hCD39 mRNA [2]; 1.3 nM, Table 12): 0.00%; mRNA inhibition (hCD39 mRNA [2]; 1000 nM, Table 12): 97.82%; IC50 (hCD39 mRNA [2]; [5]): 20.5 nM |
| +G*G*+A*C*A*A*T*G*G*T*T*G*+C*+T*+C (antisense GGACAATGGTTGCTC; sugars from the 5' end l1 d1 l1 d9 l3, all phosphorothioate, methylation of C not given here) [A04016H] | 0.10 | 0.10 | 18.41 | 42.19 | 62.31 | 77.61 | 90.51 | 96.67 | 98.38 | 98.94 | 12.8 | 0.09 | 0.09 |  |  |  |  |  |  |  |  |
| +G*+T*+T*T*G*T*G*T*G*A*G*A*G*C*+T (antisense GTTTGTGTGAGAGCT; sugars from the 5' end l3 d11 l1, all phosphorothioate, methylation of C not given here) [A04061H] |  |  |  |  |  |  |  |  |  |  |  |  |  | 0.01 | 0.00 | 0.00 | 19.90 | 69.28 | 92.28 | 0.10 | mRNA inhibition (hCD39 mRNA [2]; 1000 nM, Table 12): 97.43%; IC50 (hCD39 mRNA [2]; [5]): 66.8 nM |
| +G*+T*+A*A*G*C*C*C*T*G*A*T*+G*+T*+T (antisense GTAAGCCCTGATGTT; sugars from the 5' end l3 d9 l3, all phosphorothioate, methylation of C not given here) [A04019H] | 0.08 | 0.08 | 22.53 | 49.52 | 62.95 | 82.63 | 93.96 | 97.94 | 99.04 | 99.00 | 11.6 | 0.03 | 0.03 | 0.01 |  |  |  |  |  | 0.00 | mRNA inhibition (hCD39 mRNA [2]; 0.0045 μM, Table 8): −11.65%; mRNA inhibition (hCD39 mRNA [2]; 0.013 μM, Table 8): 8.19%; mRNA inhibition (hCD39 mRNA [2]; 0.04 μM, Table 8): 38.76%; mRNA inhibition (hCD39 mRNA [2]; 0.12 μM, Table 8): 69.42%; mRNA inhibition (hCD39 mRNA [2]; 0.4 μM, Table 8): 88.83%; mRNA inhibition (hCD39 mRNA [2]; 1.1 μM, Table 8): 95.46%; mRNA inhibition (hCD39 mRNA [2]; 3.3 μM, Table 8): 97.89%; mRNA inhibition (hCD39 mRNA [2]; 10 μM, Table 8): 98.39%; IC50 (hCD39 mRNA [2]; first screening round (Table 8)): 40 nM |
